Reference: patent US11207285B2, “Diabetes treatment regimens using alpha, alpha-substituted long-chain amphipathic carboxylates” (SYNDROMEX LTD., priority 2016, dated 2021)

Columns and labels:
Forkhead box O1 (FoxO1) = Forkhead box O1 (FoxO1) (Homo sapiens, UniProt Q12778); assay: transcriptional activity of FoxO1
[1] = system: C57BL/KsJ (db/db) Spontaneous T2D mice; assay: glucose lowering effect in db/db mice; format: in vivo; settings: once daily oral 30 mg/kg
Description: In addition, the glucose lowering effect of the above three compounds M16αα, M18αα and M20αα was tested in C57BL/KsJ (db/db) Spontaneous T2D mice, which serve as a model for T2D. These animals are characterized by hyperphagia, obesity, hyperglycemia and insulin resistance. The mice were treated once daily by oral administration of the tested compound at 30 mg/kg.

[2] = system: AMP-activated protein kinase (AMPK); assay: modulation of AMPK activity
[3] = system: cultured human HepG2 liver cells; assay: inhibition of lipoprotein production in HepG2 cells; format: cell-based
[4] = system: Type 2 Diabetes Mellitus (T2D) patients; assay: 4-week M16αα study in T2D patients, safety and tolerability; format: in vivo, human; settings: 40 mg/day oral, 28 days
Description: T2D patients, non-treated or treated with SoC antidiabetic drugs as outlined below, were screened for eligibility (inclusion/exclusion according to criteria detailed below), followed by being randomly allocated to receive once daily either add-on M16αα (40 mg M16αα plus 130 mg microcrystalline cellulose in gelatin capsules) or add-on placebo (130 mg microcrystalline cellulose in gelatin capsules), in addition to the SoC anti-diabetic treatment they have been receiving regularly. One patient was not under SoC anti-diabetic drug treatment. Sixteen (16) patients were randomized to M16αα treatment and 3 patients were randomized to placebo treatment. Patients randomized to M16αα treatment were dosed for 28 days with add-on M16αα in double-blinded manner, followed by 4-week recovery period using add-on placebo in a single-blinded manner. Patients randomized to placebo treatment were dosed for 28 days with add-on placebo in double-blinded manner.
The primary safety endpoint was the frequency, severity, and duration of adverse events (AEs), including clinically significant laboratory abnormalities after administration of M16αα.
Safety was evaluated on the basis of the following assessments: Adverse events (AEs)—continuous (starting from informed consent signature until end of study); vital signs; 12-lead ECG; physical examination; safety laboratory evaluations (blood and urine). […]

[5] = biological target: mammalian target of rapamycin (mTORC1) (Homo sapiens, UniProt P42345); assay: modulation of mTORC1 activity
rats = settings: WO98/30530, cited from earlier work

Forkhead box O1 (FoxO1), sequence (Q12778 whole entry, species assumed): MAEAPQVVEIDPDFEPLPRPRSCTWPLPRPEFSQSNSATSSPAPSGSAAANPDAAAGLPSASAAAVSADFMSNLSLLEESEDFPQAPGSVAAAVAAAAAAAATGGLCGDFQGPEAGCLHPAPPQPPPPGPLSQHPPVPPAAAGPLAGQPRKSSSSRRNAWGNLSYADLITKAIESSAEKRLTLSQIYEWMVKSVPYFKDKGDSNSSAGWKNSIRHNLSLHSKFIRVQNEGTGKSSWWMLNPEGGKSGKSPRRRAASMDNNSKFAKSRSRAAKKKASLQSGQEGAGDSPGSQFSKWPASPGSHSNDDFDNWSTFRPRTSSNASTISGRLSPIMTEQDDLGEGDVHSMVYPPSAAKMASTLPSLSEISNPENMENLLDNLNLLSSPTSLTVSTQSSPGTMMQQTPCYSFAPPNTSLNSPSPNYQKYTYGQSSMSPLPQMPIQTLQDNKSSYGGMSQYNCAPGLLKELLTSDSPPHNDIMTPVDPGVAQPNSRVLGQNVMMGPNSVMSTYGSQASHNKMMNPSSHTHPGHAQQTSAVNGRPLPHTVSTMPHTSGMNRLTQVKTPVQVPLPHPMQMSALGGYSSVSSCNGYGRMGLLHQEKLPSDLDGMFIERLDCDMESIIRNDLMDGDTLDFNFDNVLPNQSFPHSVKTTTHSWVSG

transcriptional activity of FoxO1 (Forkhead box O1 (FoxO1)): suppressing
AMPK activity [2]: activating
mTORC1 activity [5]: suppressing
Compound: CC(C)(CCCCCCCCCCCCC(C)(C)C(=O)O)C(=O)O [M16αα, 2,2,15,15-tetramethyl-hexadecane-1,16-dioic acid]
blood glucose levels [1]: significantly decrease
serum insulin levels [1]: significantly decrease
serum triglyceride levels [1]: significantly decrease
lipoprotein production [3]: significant or full inhibition
serious adverse events (SAE) [4]: No serious adverse events (SAE) were recorded
tolerability and safety [4]: well tolerated and safe
plasma lipids (rats; hyperlipidemic animal models): normalization of plasma lipids
plasma triglycerides and cholesterol (rats; normolipidemic animals): decrease in plasma triglycerides and cholesterol
hypolipidemic activity (rats; rats): potent hypolipidemic agent
